Patent publication US20230095021A1, “MODULATORS OF TDP-43” (Alteron Therapeutics, Inc., priority 2019, published 2023)

How the values were obtained:
BACE1 = experiment: Screening for ALT-59 derivatives with BACE1 protein levels as indicator, U-87 MG cells; type: cell-based; settings: 2 days, concentrations as indicated in FIGS. 15-17
Protocol: Additional experiments were performed to screen for compounds with higher potency and the ability to penetrate blood brain barrier using BACE1 protein levels as an indicator. U-87 MG cells were cultured as described previously and treated for 2 days with compounds at concentrations as indicated in FIGS. 15-17. Cells were then subjected to Western blotting analysis using anti-BACE1 and anti-beta-actin antibodies.

Phe508del-CFTR = Phe508del-CFTR localization, immunofluorescence microscopy, primary bronchial epithelial cells of a cystic fibrosis patient; type: cell-based, human; settings: primary bronchial epithelial cells homozygous for Phe508del-CFTR, 4 μM, 3 days
Protocol: MDA-MB-231 and U-87 MG cells were cultured on cover slips under the conditions as described above. Cells were treated with DMSO or 4 μM ALT-59 for 3 days. Primary human bronchial epithelial cells isolated from cystic fibrosis patient homozygous for Phe508del-CFTR (Lifeline Cell Technology) were cultured on cover slips in BronchiaLife Cell Culture Medium supplemented with BrochiaLife LifeFactors Kit (Lifeline Cell Technology) and maintained at 37° C. in a CO2 incubator. Cells were treated with DMSO, 4 μM ALT-59, 2 μM ALT-308, or 4 μM ALT-410 for 3 days.
Cells were fixed in 4% paraformaldehyde for 15 minutes and permeabilized in 0.1% Triton X-100 for 2 minutes. After being blocked in 5% BSA (Sigma-Aldrich), cells were incubated with anti-CFTR antibody (Alomone Labs) followed by Alexa Fluor 488 anti-rabbit secondary antibody. Reagents were buffered in GIBCO PBS (Phosphate-Buffered Saline). Images were taken using Carl Zeiss LSM 510 Laser Scanning Microscope. Parameters were set identical for all images.

| SMILES | BACE1 protein expression (BACE1) | localization of Phe508del-CFTR on the plasma membrane (Phe508del-CFTR) |
| --- | --- | --- |
| CCOC(=O)COc1c(Cl)cc(C2Nc3ccc4ccccc4c3C3=C2C(=O)CCC3)cc1OC (stereo not shown) [ALT-406, ethyl 2-(2-chloro-6-methoxy-4-(4-oxo-1,2,3,4,5,6-hexahydrobenzo[a]phenanthridin-5-yl)phenoxy)acetate] | capable of lowering BACE1 expression | – |
| CC1(C)CC(=O)C2=C(C1)c1cc3ccccc3cc1NC2c1ccc2c(c1)OCO2 (stereo not shown) [ALT-205, 5-(benzo[d][1,3]dioxol-5-yl)-2,2-dimethyl-2,3,5,6-tetrahydrobenzo[b]phenanthridin-4(1H)-one] | capable of lowering BACE1 expression | – |
| COC(=O)COc1ccc(C2Nc3ccc4ccccc4c3C3=C2C(=O)CCC3)cc1 (stereo not shown) [ALT-411, methyl 2-(4-(4-oxo-1,2,3,4,5,6-hexahydrobenzo[a]phenanthridin-5-yl)phenoxy)acetate] | capable of lowering BACE1 expression | – |
| COc1ccc(C2Nc3c(ccc4ccccc34)C3=C2C(=O)CCC3)cc1Br (stereo not shown) [ALT-108, 6-(3-bromo-4-methoxyphenyl)-6,8,9,10-tetrahydrobenzo[c]phenanthridin-7(5H)-one] | capable of lowering BACE1 expression | – |
| Cc1ccc(C2Nc3ccc4ccccc4c3C3=C2C(=O)CC(C)(C)C3)cc1 (stereo not shown) [ALT-306, 2,2-dimethyl-5-(p-tolyl)-2,3,5,6-tetrahydrobenzo[a]phenanthridin-4(1H)-one] | capable of lowering BACE1 expression | – |
| CCCOc1ccc(C2Nc3ccc4ccccc4c3C3=C2C(=O)CCC3)cc1 (stereo not shown) [ALT-410, 5-(4-propoxyphenyl)-2,3,5,6-tetrahydrobenzo[a]phenanthridin-4(1H)-one] | capable of lowering BACE1 expression | increased localization of Phe508del-CFTR on the plasma membrane |
| CCN(CC)c1ccc(C2Nc3ccc4ncccc4c3C3=C2C(=O)CC(C)(C)C3)cc1 (stereo not shown) [ALT-404, 8-(4-(diethylamino)phenyl)-11,11-dimethyl-8,10,11,12-tetrahydrobenzo[a][4,7]phenanthrolin-9(7H)-one] | capable of lowering BACE1 expression | – |
| CC1(C)CC(=O)C2=C(C1)c1c(ccc3ccccc13)NC2c1cccc(C(F)(F)F)c1 (stereo not shown) [ALT-215, 2,2-dimethyl-5-(3-(trifluoromethyl)phenyl)-2,3,5,6-tetrahydrobenzo[a]phenanthridin-4(1H)-one] | capable of lowering BACE1 expression | – |
| O=C1CCCC2=C1C(c1ccc3c(c1)OCO3)Nc1c2ccc2ncccc12 (stereo not shown) [ALT-403, 6-(benzo[d][1,3]dioxol-5-yl)-6,8,9,10-tetrahydrobenzo[c][1,7]phenanthrolin-7(5H)-one] | capable of lowering BACE1 expression | – |
| Cn1ccnc1Sc1ccc(C2Nc3ccc4ccccc4c3C3=C2C(=O)CC(C)(C)C3)cc1[N+](=O)[O-] (stereo not shown) [ALT-324, 2,2-dimethyl-5-(4-((1-methyl-1H-imidazol-2-yl)thio)-3-nitrophenyl)-2,3,5,6-tetrahydrobenzo[a]phenanthridin-4(1H)-one] | capable of lowering BACE1 expression | – |
| CC1(C)CC(=O)C2=C(C1)C(c1ccc3c(c1)OCO3)Nc1ccc3ccccc3c12 (stereo not shown) [ALT-201, 5-(benzo[d][1,3]dioxol-5-yl)-3,3-dimethyl-3,4,5,6-tetrahydrobenzo[a]phenanthridin-1(2H)-one] | capable of lowering BACE1 expression | – |
| Cc1ccc(C2Nc3c(ccc4ccccc34)C3=C2C(=O)CC(C)(C)C3)cc1 (stereo not shown) [ALT-333, 9,9-dimethyl-6-(p-tolyl)-6,8,9,10-tetrahydrobenzo[c]phenanthridin-7(5H)-one] | capable of lowering BACE1 expression | – |
| CCCC(=O)Oc1ccc(C2Nc3ccc4ccccc4c3C3=C2C(=O)CCC3)cc1OC (stereo not shown) [ALT-408, 2-methoxy-4-(4-oxo-1,2,3,4,5,6-hexahydrobenzo[a]phenanthridin-5-yl)phenyl butyrate] | capable of lowering BACE1 expression | – |
| COc1ccc(C2Nc3ccc4ccccc4c3C3=C2C(=O)CC(C)(C)C3)cc1Br (stereo not shown) [ALT-307, 5-(3-bromo-4-methoxyphenyl)-2,2-dimethyl-2,3,5,6-tetrahydrobenzo[a]phenanthridin-4(1H)-one] | capable of lowering BACE1 expression | – |
| CC(C)c1ccc(C2Nc3ccc4ccccc4c3C3=C2C(=O)CC(C)(C)C3)cc1 (stereo not shown) [ALT-309, 5-(4-isopropylphenyl)-2,2-dimethyl-2,3,5,6-tetrahydrobenzo[a]phenanthridin-4(1H)-one] | capable of lowering BACE1 expression | – |
| COc1cc(C2Nc3ccc4ccccc4c3C3=C2C(=O)CC(C)(C)C3)cc(Br)c1OC (stereo not shown) [ALT-208, 5-(3-bromo-4,5-dimethoxyphenyl)-2,2-dimethyl-2,3,5,6-tetrahydrobenzo[a]phenanthridin-4(1H)-one] | capable of lowering BACE1 expression | – |
| CSc1ccc(C2Nc3ccc4ccccc4c3C3=C2C(=O)CC(C)(C)C3)cc1 (stereo not shown) [ALT-311, 2,2-dimethyl-5-(4-(methylthio)phenyl)-2,3,5,6-tetrahydrobenzo[a]phenanthridin-4(1H)-one] | capable of lowering BACE1 expression | – |
| O=C1CCCC2=C1C(c1ccc(O)c(O)c1)Nc1c2ccc2ccccc12 (stereo not shown) [ALT-317, 6-(3,4-dihydroxyphenyl)-6,8,9,10-tetrahydrobenzo[c]phenanthridin-7(5H)-one] | capable of lowering BACE1 expression | – |
| CC1(C)CC(=O)C2=C(C1)c1c(ccc3ccccc13)NC2c1cccc(OC(F)(F)C(F)F)c1 (stereo not shown) [ALT-110, 2,2-dimethyl-5-(3-(1,1,2,2-tetrafluoroethoxy)phenyl)-2,3,5,6-tetrahydrobenzo[a]phenanthridin-4(1H)-one] | capable of lowering BACE1 expression | – |
| CC1(C)CC(=O)C2=C(C1)c1c(ccc3ccccc13)NC2c1ccc(Cl)c(Cl)c1 (stereo not shown) [ALT-204, 5-(3,4-dichlorophenyl)-2,2-dimethyl-2,3,5,6-tetrahydrobenzo[a]phenanthridin-4(1H)-one] | capable of lowering BACE1 expression | – |
| CC1(C)CC(=O)C2=C(C1)c1c(ccc3ccccc13)NC2c1ccc(C(F)(F)F)cc1 (stereo not shown) [ALT-212, 2,2-dimethyl-5-(4-(trifluoromethyl)phenyl)-2,3,5,6-tetrahydrobenzo[a]phenanthridin-4(1H)-one] | capable of lowering BACE1 expression | – |
| COc1cc(C2Nc3ccc4ccccc4c3C3=C2C(=O)CC(C)(C)C3)cc2c1OCO2 (stereo not shown) [ALT-211, 5-(7-methoxybenzo[d][1,3]dioxol-5-yl)-2,2-dimethyl-2,3,5,6-tetrahydrobenzo[a]phenanthridin-4(1H)-one] | capable of lowering BACE1 expression | – |
| C#CCOc1c(I)cc(C2Nc3ccc4ccccc4c3C3=C2C(=O)CC(C)(C)C3)cc1OC (stereo not shown) [ALT-402, 5-(3-iodo-5-methoxy-4-(prop-2-yn-1-yloxy)phenyl)-2,2-dimethyl-2,3,5,6-tetrahydrobenzo[a]phenanthridin-4(1H)-one] | capable of lowering BACE1 expression | – |
| CCOc1ccc(C2Nc3ccc4ccccc4c3C3=C2C(=O)CC(C)(C)C3)cc1OC (stereo not shown) [ALT-207, 5-(4-ethoxy-3-methoxyphenyl)-2,2-dimethyl-2,3,5,6-tetrahydrobenzo[a]phenanthridin-4(1H)-one] | capable of lowering BACE1 expression | – |
| CCN(CC)c1ccc(C2Nc3ccc4ccccc4c3C3=C2C(=O)CC(C)(C)C3)cc1 (stereo not shown) [ALT-318, 5-(4-(diethylamino)phenyl)-2,2-dimethyl-2,3,5,6-tetrahydrobenzo[a]phenanthridin-4(1H)-one] | capable of lowering BACE1 expression | – |
| CC1(C)CC(=O)C2=C(C1)c1c(ccc3ccccc13)NC2c1cccc(OCc2cc3c(cc2Cl)OCO3)c1 (stereo not shown) [ALT-210, 5-(3-((6-chlorobenzo[d][1,3]dioxol-5-yl)methoxy)phenyl)-2,2-dimethyl-2,3,5,6-tetrahydrobenzo[a]phenanthridin-4(1H)-one] | capable of lowering BACE1 expression | – |
| CC1(C)CC(=O)C2=C(C1)c1c(ccc3ccccc13)NC2c1ccc(Br)s1 (stereo not shown) [ALT-202, 5-(5-bromothiophen-2-yl)-2,2-dimethyl-2,3,5,6-tetrahydrobenzo[a]phenanthridin-4(1H)-one] | capable of lowering BACE1 expression | – |
| CC1CCN(c2ccc(C3Nc4ccc5ccccc5c4C4=C3C(=O)CC(C)(C)C4)cc2[N+](=O)[O-])CC1 (stereo not shown) [ALT-322, 2,2-dimethyl-5-(4-(4-methylpiperidin-1-yl)-3-nitrophenyl)-2,3,5,6-tetrahydrobenzo[a]phenanthridin-4(1H)-one] | capable of lowering BACE1 expression | – |
| C=CCOc1ccc(C2Nc3ccc4ccccc4c3C3=C2C(=O)CC(C)(C)C3)cc1OC (stereo not shown) [ALT-409, 5-(4-(allyloxy)-3-methoxyphenyl)-2,2-dimethyl-2,3,5,6-tetrahydrobenzo[a]phenanthridin-4(1H)-one] | capable of lowering BACE1 expression | – |
| COc1cc(C2Nc3ccc4ccccc4c3C3=C2C(=O)CC(C)(C)C3)ccc1OCC(=O)O (stereo not shown) [ALT-413, 2-(4-(2,2-dimethyl-4-oxo-1,2,3,4,5,6-hexahydrobenzo[a]phenanthridin-5-yl)-2-methoxyphenoxy)acetic acid] | capable of lowering BACE1 expression | – |
